# pEC50: −log10 of the molar value. Like-named read-outs stand apart in the source and are kept apart here.
# Target: T1, G protein-coupled receptor 119 (GPR-119) (Mesocricetus auratus, UniProt A0A1U8CD06)
# T1 construct: hamster-derived β-cells containing G protein-coupled receptor 119 (GPR-119), HIT-T15 cells; host or cells: HIT-T15 (hamster pancreatic β-cells)
# T1 sequence (A0A1U8CD06 1-334): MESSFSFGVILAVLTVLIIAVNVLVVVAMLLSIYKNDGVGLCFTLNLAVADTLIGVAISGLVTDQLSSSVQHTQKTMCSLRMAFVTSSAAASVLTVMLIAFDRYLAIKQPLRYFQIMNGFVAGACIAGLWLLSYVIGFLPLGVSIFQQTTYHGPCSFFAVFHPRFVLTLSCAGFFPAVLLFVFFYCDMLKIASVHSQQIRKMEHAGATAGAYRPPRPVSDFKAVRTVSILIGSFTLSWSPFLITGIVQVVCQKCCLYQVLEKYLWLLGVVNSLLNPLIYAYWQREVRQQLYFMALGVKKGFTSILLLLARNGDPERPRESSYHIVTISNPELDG
# Assay: cAMP activity in HIT-T15 cells (cAMP dynamic kit, FRET)
# Format: cell-based, hamster
# Protocol: To check whether the cyclohexene derivatives according to the present invention activate cyclic adenosine monophosphate (cAMP), experiments were carried out, as follows.
# The HIT-T15 cells were plated on a 96-well plate at 60,000 cells per well. On the next day of plating, the cells were treated with a varying concentration of each of the example compounds according to the present invention, and incubated at 37° C. for an hour. In this case, each of the treated compounds was used at six concentrations, ranging from 0.0032 to 10 μM, to treat the cells.
# The cyclic adenosine monophosphate (cAMP) activity was measured according to the manufacturer's instruction using a cAMP dynamic kit commercially available from Cis Bio Inc. (Bedford, Mass.). The cells were lysed, and a level of cAMP was determined by a competitive immunoassay using D2-labeled cAMP and a cryptate-labeled anti-cAMP antibody. Fluorescence was read in Flex Station (Molecular Devices). […] Unlabeled cAMP in the cell lysate competed with the D2-labeled cAMP against the cryptate-labeled antibody. Since a decrease in the measured intensity of the FRET signals represents a level of cAMP in the cells, the cAMP activities of the compounds are calculated as a change in FRET signals by adjusting an amount of dimethyl sulfoxide (DMSO).
# [1] = 1 hour at 37° C., six concentrations 0.0032 to 10 μM, read-out: EC50
Structure (SMILES),pEC50 [1],"pEC50 (Table 2, read-out: EC50 value)"
"CC(C)(C)OC(=O)N1CCC(COc2ccc(C3=CCC(C(=O)N4CCOCC4)CC3)cc2F)CC1 (single isomer, unassigned; (+)) [Example 442, (+)-tert-butyl 4-((2-fluoro-4-(4-(morpholine-4-carbonyl)cyclohex-1-enyl)phenoxy)methyl)piperidine-1-carboxylate]",8.10,≥ 7.30
"CCc1cnc(N2CCC(COc3ccc(C4=CCC(C(=O)N5CCC(F)(F)C5)CC4)c(F)c3)CC2)nc1 (single isomer, unassigned; (+)) [Example 462, (+)-(3,3-difluoropyrrolidin-1-yl)(4-(4-((1-(5-ethylpyrimidin-2-yl)piperidin-4-yl)methoxy)-2-fluorophenyl)cyclohex-3-enyl)methanone]",7.85,≥ 7.30
"CCc1cnc(N2CCC(COc3ccc(C4=CCC(C(=O)N5CC(F)(F)C(F)(F)C5)CC4)c(F)c3)CC2)nc1 (single isomer, unassigned; (+)) [Example 464, (+)-(4-(4-((1-(5-ethylpyrimidin-2-yl)piperidin-4-yl)methoxy)-2-fluorophenyl)cyclohex-3-enyl)(3,3,4,4-tetrafluoropyrrolidin-1-yl)methanone]",7.89,≥ 7.30
"CCc1cnc(N2CCC(COc3ccc(C4=CCC(C(=O)N5CCC[C@H]5CO)CC4)cc3)CC2)nc1 (single isomer, unassigned; (+)) [Example 466]",7.92,≥ 7.30
"CCc1cnc(N2CCC(COc3ccc(C4=CCC(C(=O)N5CCCC5)CC4)cc3F)CC2)nc1 (single isomer, unassigned; (-)) [Example 429, (−)-(4-(4-((1-(5-ethylpyrimidin-2-yl)piperidin-4-yl)methoxy)-3-fluorophenyl)cyclohex-3-enyl)(pyrrolidin-1-yl)methanone]",7.68,≥ 7.30
"CCc1cnc(N2CCC(COc3ccc(C4=CCC(C(=O)N5CCC(CCO)CC5)CC4)cc3F)CC2)nc1 (single isomer, unassigned; (-)) [Example 430, (−)-(4-(4-((1-(5-ethylpyrimidin-2-yl)piperidin-4-yl)methoxy)-3-fluorophenyl)cyclohex-3-enyl)(4-(2-hydroxyethyl)piperidin-1-yl)methanone]",8.05,≥ 7.30
"CCc1cnc(N2CCC(COc3ccc(C4=CCC(C(=O)NCCO)CC4)cc3F)CC2)nc1 (single isomer, unassigned; (-)) [Example 441, (−)-4-(4-((1-(5-ethylpyrimidin-2-yl)piperidin-4-yl)methoxy)-3-fluorophenyl)-N-(2-hydroxyethyl)cyclohex-3-enecarboxamide]",7.48,≥ 7.30
"CC(C)(C)OC(=O)N1CCC(COc2ccc(C3=CCC(C(=O)N4CCOCC4)CC3)cc2F)CC1 (single isomer, unassigned; (-)) [Example 443, (−)-tert-butyl 4-((2-fluoro-4-(4-(morpholine-4-carbonyl)cyclohex-1-enyl)phenoxy)methyl)piperidine-1-carboxylate]",7.42,–
"CCc1cnc(N2CCC(COc3ccc(C4=CCC(C(=O)N5CC[C@H](F)C5)CC4)cc3)CC2)nc1 (single isomer, unassigned; (-)) [Example 458]",7.92,–
"CCc1cnc(N2CCC(COc3ccc(C4=CCC(C(=O)N5CCC(F)(F)C5)CC4)c(F)c3)CC2)nc1 (single isomer, unassigned; (-)) [Example 461, (−)-(3,3-difluoropyrrolidin-1-yl)(4-(4-((1-(5-ethylpyrimidin-2-yl)piperidin-4-yl)methoxy)-2-fluorophenyl)cyclohex-3-enyl)methanone]",7.04,–
"CCc1cnc(N2CCC(COc3ccc(C4=CCC(C(=O)N5CC(F)(F)C(F)(F)C5)CC4)c(F)c3)CC2)nc1 (single isomer, unassigned; (-)) [Example 463, (−)-(4-(4-((1-(5-ethylpyrimidin-2-yl)piperidin-4-yl)methoxy)-2-fluorophenyl)cyclohex-3-enyl)(3,3,4,4-tetrafluoropyrrolidin-1-yl)methanone]",7.06,–
"CCc1cnc(N2CCC(COc3ccc(C4=CCC(C(=O)N5CCC[C@H]5CO)CC4)cc3)CC2)nc1 (single isomer, unassigned; (-)) [Example 465]",6.96,–
"CC(C)c1noc(N2CCC(COc3ccc(C4=CCC(C(=O)N5CC[C@H](F)C5)CC4)cc3F)CC2)n1 (stereo partly drawn) [Example 95, (4-(3-fluoro-4-((1-(3-isopropyl-1,2,4-oxadiazol-5-yl)piperidin-4-yl)methoxy)phenyl)cyclohex-3-enyl)((S)-3-fluoropyrrolidin-1-yl)methanone]",–,≥ 7.30
"CCc1cnc(N2CCC(COc3ccc(C4=CCC(C(=O)N5CCN(CCO)CC5)CC4)cc3)CC2)nc1 (centres unmarked) [Example 172, (4-(4-((1-(5-ethylpyrimidin-2-yl)piperidin-4-yl)methoxy)phenyl)cyclohex-3-enyl)(4-(2-hydroxyethyl)piperazin-1-yl)methanone]",–,≥ 7.30
"CCc1cnc(N2CCC(COc3ccc(C4=CCC(C(=O)N5CCC(CCO)CC5)CC4)cc3)CC2)nc1 (centres unmarked) [Example 173, (4-(4-((1-(5-ethylpyrimidin-2-yl)piperidin-4-yl)methoxy)phenyl)cyclohex-3-enyl)(4-(2-hydroxyethyl)piperidin-1-yl)methanone]",–,≥ 7.30
"CCc1cnc(N2CCC(COc3ccc(C4=CCC(C(=O)NCC(C)(C)CO)CC4)cc3)CC2)nc1 (centres unmarked) [Example 177, 4-(4-((1-(5-ethylpyrimidin-2-yl)piperidin-4-yl)methoxy)phenyl)-N-(3-hydroxy-2,2-dimethylpropyl)cyclohex-3-enecarboxamide]",–,≥ 7.30
"CCN1CCN(C(=O)C2CC=C(c3ccc(OCC4CCN(C(=O)OC(C)(C)C)CC4)cc3)CC2)CC1 (centres unmarked) [Example 203, tert-butyl 4-((4-(4-(4-ethylpiperazine-1-carbonyl)cyclohex-1-enyl)phenoxy)methyl)piperidine-1-carboxylate]",–,≥ 7.30
"CCc1cnc(N2CCC(COc3ccc(C4=CCC(C(=O)N5CC=CC5)CC4)cc3)CC2)nc1 (centres unmarked) [Example 235, (2,5-dihydro-1H-pyrrol-1-yl)(4-(4-((1-(5-ethylpyrimidin-2-yl)piperidin-4-yl)methoxy)phenyl)cyclohex-3-enyl)methanone]",–,≥ 7.30
"CC(C)(C)OC(=O)N1CCC(COc2ccc(C3=CCC(C(=O)N4CCc5ccccc5C4)CC3)cc2)CC1 (centres unmarked) [Example 239, tert-butyl 4-((4-(4-(1,2,3,4-tetrahydroisoquinoline-2-carbonyl)cyclohex-1-enyl)phenoxy)methyl)piperidine-1-carboxylate]",–,≥ 7.30
CC(C)c1noc(N2CCC(COc3ccc(C4=CCC(C(=O)N5CCC(=O)C5)CC4)cc3)CC2)n1 (centres unmarked) [Example 251],7.66,≥ 7.30
"CCc1cnc(N2CCC(COc3ccc(C4=CCC(C(=O)N5C/C(=N\OC)C(CO)(CO)C5)CC4)cc3)CC2)nc1 (centres unmarked) [Example 253, (Z)-(3,3-bis(hydroxymethyl)-4-(methoxyimino)pyrrolidin-1-yl)(4-(4-((1-(5-ethylpyrimidin-2-yl)piperidin-4-yl)methoxy)phenyl)cyclohex-3-enyl)methanone]",–,≥ 7.30
"CC(C)(C)OC(=O)N1CCC(COc2ccc(C3=CCC(C(=O)N4CCN(CC5CC5)CC4)CC3)cc2)CC1 (centres unmarked) [Example 256, tert-butyl 4-((4-(4-(4-(cyclopropylmethyl)piperazine-1-carbonyl)cyclohex-1-enyl)phenoxy)methyl)piperidine-1-carboxylate]",–,≥ 7.30
CC(C)(C)OC(=O)N1CCC(COc2ccc(C3=CCC(C(=O)N4CCC(C#N)CC4)CC3)cc2)CC1 (centres unmarked) [Example 262],8.15,≥ 7.30
"CC(C)(C)OC(=O)N1CCC(COc2ccc(C3=CCC(C(=O)N4CCC5(C=Cc6ccccc65)CC4)CC3)cc2)CC1 (centres unmarked) [Example 264, tert-butyl 4-((4-(4-(spiro[indene-1,4′-piperidin]-1′-ylcarbonyl)cyclohex-1-enyl)phenoxy)methyl)piperidine-1-carboxylate]",–,≥ 7.30
"CON=C1CCN(C(=O)C2CC=C(c3ccc(OCC4CCN(C(=O)OC(C)(C)C)CC4)cc3)CC2)CC1 (centres unmarked) [Example 270, tert-butyl 4-((4-(4-(4-(methoxyimino)piperidine-1-carbonyl)cyclohex-1-enyl)phenoxy)methyl)piperidine-1-carboxylate]",–,≥ 7.30
"CC(C)c1noc(N2CCC(COc3ccc(C4=CCC(C(=O)N5CCC(=NO)CC5)CC4)cc3)CC2)n1 (centres unmarked) [Example 276, (4-(hydroxyimino)piperidin-1-yl)(4-(4-((1-(3-isopropyl-1,2,4-oxadiazol-5-yl)piperidin-4-yl)methoxy)phenyl)cyclohex-3-enyl)methanone]",–,≥ 7.30
